# Results: patent US11090308B2, “Methods of treating liver disorders or lipid disorders with a THR-beta agonist” (Madrigal Pharmaceuticals, Inc., priority 2016, dated 2021)
# Legend:
# [1] = Dog 14C-MGL-3196 mass balance study; format: in vivo
# Text: Tables 2A-2B show ^14C-MGL-3196 dog ADME study design.
# [2] = Excretion mass balance in rats after a single oral dose of [14C]MGL-3196 (Group 1); format: in vivo, rat; conditions: for Percent Recovery, Carcass / Percent Recovery, Residues / Percent Recovery, Total: totals up to 168 h
# Procedure: (§1) The study utilized 2 groups of male SD rats (Groups 1 and 2) and 1 group of male LE rats (Group 3); which were obtained from Hilltop Lab Animals, Inc. (Scottdale, Pa.). Group 1 was used for evaluation of excretion mass balance; Group 2 was used for evaluation of plasma total radioactivity PK; and Group 3 was used for evaluation of tissue distribution of total radioactivity. All rats received a single PO dose of [^14C]MGL-3196. The target dose was 5 mg/kg using a formulation prepared in a 4% DMSO/96% of 2% Klucel, 0.1% Tween-80, 0.09% methylparaben and 0.01% propylparaben in purified MilliQ water vehicle.
# The following studies have been conducted: (a) in vitro drug protein binding, transporter (organic anion transporting polypeptide [OATP], P-glycoprotein [P-gp], breast cancer-related protein [BCRP], and multiple drug resistance protein 1 [MDR1]), and cytochrome P-450 enzyme assays to investigate absorption, distribution, and excretion; (b) in vivo MGL-3196 rat and dog oral PK and bioavailability studies; (c) in vivo ^14C-MGL-3196 rat and dog oral pharmacokinetics, absorption, excretion, and tissue distribution by quantitative whole-body autoradiography (QWBA) studies; and (d) liver disposition of MGL-3196 using an in vitro sandwiched hepatocyte model system (B-CLEAR® technology) in dog (SCDH) and human (SCHH) hepatocytes.
# [3] = Plasma total radioactivity pharmacokinetics in SD rats (Group 2); format: in vivo, rat
# Procedure: as §1
# [4] = Tissue distribution by quantitative whole-body autoradiography, blood and plasma radioactivity in LE rats (Group 3); format: in vivo, rat; conditions: for Tissue to Plasma Ratio, Adrenal Gland / Tissue to Plasma Ratio, Heart / Tissue to Plasma Ratio, Kidney / Tissue to Plasma Ratio, Liver / Tissue to Plasma Ratio, Lung / Tissue to Plasma Ratio, Muscle / Tissue to Plasma Ratio, Skin / Tissue to Plasma Ratio, Spleen / Tissue to Plasma Ratio, Thyroid / Tissue to Plasma Ratio, Brain: rat
# Procedure: as §1
# [5] = 3 male beagle dogs, 0-168 hr post-dose, Mean ± SD (% RSD)
# [6] = male SD rats Group 1, single PO 5 mg/kg, mean
# [7] = male SD rats Group 1, single PO 5 mg/kg, mean, through 168 h
# [8] = male SD rats Group 2, single PO 5 mg/kg
# [9] = male LE rats Group 3, single PO 5 mg/kg
# [10] = pigmented male rats, single PO dose
smiles,measurement,setting,value
CC(C)c1cc(Oc2c(Cl)cc(-n3nc(C#N)c(=O)[nH]c3=O)cc2Cl)n[nH]c1=O [[^14C]MGL-3196],% of Dose in Cage Residue,[1]; [5],4.55 ± 3.399 (74.8) %
same,% of Dose in Feces,[1]; [5],76.3 ± 25.62 (33.6) %
same,% of Dose in Urine,[1]; [5],2.57 ± 1.296 (50.4) %
same,Total % of Dose Recovered (urine + feces + cage residue),[1]; [5],83.37 ± 24.063 (28.9) %
same,% of total administered recovered in feces,"[1]; dog, 100 mg/kg",~83%
same,% of total administered recovered in urine,"[1]; dog, 100 mg/kg",2.5%
same,share of the radioactivity recovered that was in feces,"[1]; dog, 100 mg/kg",at least 92%
same,share of the radioactivity recovered that was in urine,"[1]; dog, 100 mg/kg",2.7%
same,"Percent Recovery, Carcass",[2]; Mean,1.1%
same,"Percent Recovery, Residues",[2]; Mean,1.3%
same,"Percent Recovery, Total",[2]; Mean,87.2%
same,"Percent Recovery, Carcass",[2]; Ra#3,1.0%
same,"Percent Recovery, Residues",[2]; Ra#3,0.9%
same,"Percent Recovery, Total",[2]; Ra#3,87.3%
same,"Percent Recovery, Carcass",[2]; Rat#1,1.1%
same,"Percent Recovery, Residues",[2]; Rat#1,1.7%
same,"Percent Recovery, Total",[2]; Rat#1,82.6%
same,"Percent Recovery, Carcass",[2]; Rat#2,1.2%
same,"Percent Recovery, Residues",[2]; Rat#2,1.3%
same,"Percent Recovery, Total",[2]; Rat#2,91.7%
same,"radioactivity recovered in the cage residues, % of the administered dose",[2]; [6],1.3%
same,"radioactivity recovered in the carcass, % of the administered dose",[2]; [6],1.1%
same,"radioactivity recovered in the feces, % of the administered dose",[2]; [7],68.6%
same,"radioactivity recovered in the urine, % of the administered dose",[2]; [7],16.2%
same,"total recovery of radioactivity, % of the administered dose",[2]; [7],87.2%
same,mean AUCinf obs of plasma total radioactivity,[3]; [8],25346 ng equiv·h/mL
same,mean Cmax of plasma total radioactivity,[3]; [8],2230 ng equiv/mL
same,radioactivity quantifiable in plasma through,"[3]; male SD rats, last time point for this group",48 h
same,"Tissue to Plasma Ratio, Adrenal Gland",[4]; 1 h,0.34
same,"Tissue to Plasma Ratio, Heart",[4]; 1 h,0.30
same,"Tissue to Plasma Ratio, Kidney",[4]; 1 h,3.51
same,"Tissue to Plasma Ratio, Liver",[4]; 1 h,16.28
same,"Tissue to Plasma Ratio, Lung",[4]; 1 h,0.41
same,"Tissue to Plasma Ratio, Muscle",[4]; 1 h,0.12
same,"Tissue to Plasma Ratio, Skin",[4]; 1 h,0.21
same,"Tissue to Plasma Ratio, Spleen",[4]; 1 h,0.17
same,"Tissue to Plasma Ratio, Thyroid",[4]; 1 h,0.27
same,"Tissue to Plasma Ratio, Adrenal Gland",[4]; 2 h,0.35
same,"Tissue to Plasma Ratio, Heart",[4]; 2 h,0.26
same,"Tissue to Plasma Ratio, Kidney",[4]; 2 h,2.28
same,"Tissue to Plasma Ratio, Liver",[4]; 2 h,12.40
same,"Tissue to Plasma Ratio, Lung",[4]; 2 h,0.42
same,"Tissue to Plasma Ratio, Muscle",[4]; 2 h,0.07
same,"Tissue to Plasma Ratio, Skin",[4]; 2 h,0.23
same,"Tissue to Plasma Ratio, Spleen",[4]; 2 h,0.10
same,"Tissue to Plasma Ratio, Thyroid",[4]; 2 h,0.45
same,"Tissue to Plasma Ratio, Adrenal Gland",[4]; 4 h,0.28
same,"Tissue to Plasma Ratio, Brain",[4]; 4 h,0.03
same,"Tissue to Plasma Ratio, Heart",[4]; 4 h,0.29
same,"Tissue to Plasma Ratio, Kidney",[4]; 4 h,2.97
same,"Tissue to Plasma Ratio, Liver",[4]; 4 h,12.76
same,"Tissue to Plasma Ratio, Lung",[4]; 4 h,0.48
same,"Tissue to Plasma Ratio, Muscle",[4]; 4 h,0.07
same,"Tissue to Plasma Ratio, Skin",[4]; 4 h,0.30
same,"Tissue to Plasma Ratio, Spleen",[4]; 4 h,0.13
same,"Tissue to Plasma Ratio, Thyroid",[4]; 4 h,0.20
same,"Tissue to Plasma Ratio, Adrenal Gland",[4]; 8 h,0.56
same,"Tissue to Plasma Ratio, Brain",[4]; 8 h,0.09
same,"Tissue to Plasma Ratio, Heart",[4]; 8 h,0.62
same,"Tissue to Plasma Ratio, Kidney",[4]; 8 h,2.98
same,"Tissue to Plasma Ratio, Liver",[4]; 8 h,11.90
same,"Tissue to Plasma Ratio, Lung",[4]; 8 h,0.68
same,"Tissue to Plasma Ratio, Muscle",[4]; 8 h,0.23
same,"Tissue to Plasma Ratio, Skin",[4]; 8 h,0.72
same,"Tissue to Plasma Ratio, Spleen",[4]; 8 h,0.36
same,"Tissue to Plasma Ratio, Thyroid",[4]; 8 h,0.46
same,"Tissue to Plasma Ratio, Adrenal Gland",[4]; Cmax,0.51
same,"Tissue to Plasma Ratio, Brain",[4]; Cmax,0.08
same,"Tissue to Plasma Ratio, Heart",[4]; Cmax,0.57
same,"Tissue to Plasma Ratio, Kidney",[4]; Cmax,2.97
same,"Tissue to Plasma Ratio, Liver",[4]; Cmax,12.76
same,"Tissue to Plasma Ratio, Lung",[4]; Cmax,0.62
same,"Tissue to Plasma Ratio, Muscle",[4]; Cmax,0.21
same,"Tissue to Plasma Ratio, Skin",[4]; Cmax,0.65
same,"Tissue to Plasma Ratio, Spleen",[4]; Cmax,0.33
same,"Tissue to Plasma Ratio, Thyroid",[4]; Cmax,0.42
same,"Radioactivity concentrations at 1392 h post-dose in 7 of 40 tissues (blood, liver, Harderian gland, pancreas, pigmented skin, lung, eye lens)",[4]; male LE rats,> 7.90 ng equiv/g
same,radioactivity quantifiable in blood through,[4]; male LE rats,768 h
same,radioactivity quantifiable in plasma through,[4]; male LE rats,168 h
same,AUCinf obs of blood total radioactivity,[4]; [9],54361 ng equiv·h/g
same,AUCinf obs of plasma total radioactivity,[4]; [9],20430 ng equiv·h/mL
same,Cmax of plasma total radioactivity (by LSC),[4]; [9],1078 ng equiv/mL
same,Liver AUC (exposure) higher than plasma,[4]; [10],approximately 10 ×
same,blood AUC higher than plasma,[4]; [10],about 2 ×
same,kidney cortex AUC higher than plasma,[4]; [10],approximately 3 ×
same,liver:plasma AUCall ratio,[4]; [10],10.5
same,Liver AUC (exposure) higher than plasma,"[4]; pigmented male rats, single PO dose, listed as 14C-MGL-3196",~10 ×
same,"Tissue to plasma ratios for all tissues except liver, kidney, urinary bladder, and cecum",[4]; throughout the distribution phase (up to 8 h post-dose),< 1
